Measurements as given in patent EP2522332A1, “Use of resveratrol and magnesium-ascorbyl-phosphate” (DSM IP Assets B.V., priority 2011, dated 2012).
Like-named read-outs stand apart in the source and are kept apart here.

Test system: SILV
Test: Assessment of gene modulation in normal human epidermal melanocytes (NHEM), RT-qPCR / PCR array
Type: cell-based
Conditions: for activation at 1000 µg/mL: Homo sapiens, Melanocyte
Protocol: Normal human epidermal melanocytes were cultivated for 24 hours. […] Cells were cultivated for additional 72 hours. All experimental conditions were performed in triplicate.
At the end of the cultivation, the cells were harvested and washed with phosphate buffered saline (PBS) solution and immediately frozen at -80°C. The expression of selected markers was analyzed using RT-qPCR method on mRNA extracted from cells layer for each treatment condition. The differential expression analysis was performed by PCR arrays of the screening format "mQPA H-Melanocyte-64", which focuses on 64 genes selected for their importance in pigmentation and melanocyte biology.
Total RNA was extracted from each sample using TRI-Reagent®. The amount and quality of the RNA was evaluated using a lab-on-a-chip Bioanalyzer (Agilent technologies). Potential contaminants traces of DNA were removed […] The incorporation of fluorescence in amplified DNA was measured continuously during the PCR cycles. […] The value selected for RE calculations is the "output point" (Ct) of the fluorescence curve. For a given marker, the highest is the cycle number; the lowest, is the mRNA quantity. The RE value is expressed in arbitrary units (AU) according to the equation: (((1)/(2)))^NC x 10^6 [formula]
Where NC is the number of cycles.

| SMILES | modulation of the gene SILV (NHEM cells, resveratrol alone 5 micrograms/ml, 72 hours) | activation at 1000 µg/mL (NHEM cells treated 72 hours, resveratrol 5 µg/ml, magnesium-ascorbyl-phosphate 1 mg/ml, combination 5 µg/ml + 1 mg/ml, versus control, read-out: SILV (expression level of the gene SILV)) [%] | activation at 1000 µg/mL (NHEM cells, magnesium ascorbyl phosphate 1 mg/ml, 72 hours, read-out: induction of the SILV gene) [%] |
| --- | --- | --- | --- |
| Oc1ccc(C=Cc2cc(O)cc(O)c2)cc1 [Resveratrol, 3,4',5 trihydroxystilbene] | did not modulate | – | – |
| O=C1O[C@H]([C@@H](O)CO)C(O)=C1OP(=O)(O)O [magnesium-ascorbyl-phosphate, magnesium-L-ascorbyl-2-phosphate] | – | 25 | 25 |
